# Laboratory results published in patent US20120157402A1, “METHODS FOR TREATING BRAIN TUMORS” (priority 2009, published 2012).
# Like-named read-outs stand apart in the source and are kept apart here. Marks after values point to notes of the source that are not given here.
# How the values were obtained:
# [1] = Trough plasma concentrations of Compound #10 in HT1080 xenograft mice (HPLC-MS/MS); format: in vivo; details: athymic nude, mouse, oral, 1 mg/kg BID
# [2] = Oral pharmacokinetics in mice; format: in vivo; details: mouse, plasma, 1-mg/kg dose level, Day 1, read-out: Plasma trough concentration at 24 hours (minimal mean target plasma concentration)
# Procedure: The pharmacokinetic evaluations in mice were adjuncts to the primary pharmacodynamic xenograft studies. The evaluations in rats included toxicokinetic assessments in single-dose, 7-day, and 28-day toxicology studies as well as a mass-balance study after a single oral dose of ^14C-Compound #10. The evaluations in dogs included toxicokinetic assessments in 7-day and 28-day toxicology studies. In the studies performed, rodents were dosed once daily with Compound #10 formulated in vehicle and administered via oral gavage.
# [3] = Single-dose oral toxicity study in rats; details: Sprague Dawley, rat, in vivo, single oral gavage, read-out: NOAEL for 1 day of dosing
# Procedure: (§1) The L23 vehicle was used.
# Because maximal exposure occurred at 100 mg/kg, this dose is considered the NOAEL for 1 day of dosing.
# [4] = 7-day oral toxicity study in rats; details: Sprague Dawley, rat, in vivo
# Procedure: as §1
# Maximal exposures occurred at a dose of 120 mg/kg/day.
# [5] = Phase 1 multiple-dose study in healthy volunteers: pharmacokinetics (Table 28); format: in vivo; details: human, plasma, oral; for concentration at 24 h: 24 hours after first daily dose, read-out: C24 h; for AUC(0-t): read-out: AUC0-24; for Cmax: read-out: Cmax (after PM dose)
# Procedure: The study was performed under the oversight of the French health authorities. The study was not performed under an IND.
# Methods. The trial was a Phase 1, randomized, escalating multiple dose, single center study conducted in 2 stages.
# Capsules contained 2 mg or 20 mg of active substance.
# Capsules contained 20 mg or 25 mg of active substance.
# Noncompartmental methods were used to compute Tmax, Cmax, and AUC. Dose proportionality and sex effect were evaluated using ANOVA on log transformed PK parameters using dose, sex, and dose by sex as fixed factors.
# in vivo [6] = details: beagle, dog
# Procedure: (§5) The L23 vehicle was used. […] All studies in the toxicology program were conducted according to GLP regulations.
# in vivo [7] = details: both, beagle, dog
# Procedure: as §5
# in vivo [8] = details: Sprague Dawley, rat
# Procedure: as §5
# HT1080 xenografts [9] = assay: Tumor growth in nude mice bearing HT1080 xenografts; format: in vivo, athymic nude mice
# Procedure: (§2) In all of these experiments, HT1080 cells (5×10^6 cells/mouse) were implanted subcutaneously in male athymic nude mice. When tumors had become established, mice were divided into groups (10 mice/group). […] Tumor size was measured by calipers at the beginning and end of treatment. At the completion of Compound administration, the mice were sacrificed, and excised tumors were assayed by ELISA for intratumoral VEGF or other angiogenic factors using methods analogous to those described in Section 9.1.1.1.
# Experimental Study Design. HT1080 cells (5×10^6 cells/mouse) were implanted subcutaneously in male athymic nude mice.
# (§3) Tumor size was measured using calipers at periodic intervals during the study (data shown in Section 9.2.2). […] The study was ended after 18 days, when the vehicle treated tumors reached a mean volume of ˜1755 mm^3. […] Mice were sacrificed, and excised tumors were homogenized in buffer containing protease inhibitors. Both terminal intratumoral and pathologic plasma human VEGF levels were measured using an ELISA that recognizes human VEGF121 and VEGF165 (as described in Section 9.1.1.1). Intratumoral VEGF levels were normalized to the total tumor protein concentration, while pathologic plasma human VEGF levels were expressed in pg/mL of plasma.
# Experimental Design. HT1080 cells (5×10^6 cells/mice) were implanted subcutaneously into male athymic nude mice. Treatment with vehicle alone or Compound 1205 was initiated when the median tumor volume was approximately 311±88 mm^3. Table 7 and Table 9 (study design #21 and #23) provide the study design for assessing tumor and plasma pathologic VEGF concentrations—each group in each study included eight (8) mice. When the tumors in vehicle-treated mice had reached the target size of ˜1200 mm^3 for study #21 and ˜1500 mm^3 for study #23, all mice in the study were sacrificed, and excised tumors were homogenized in buffer containing protease inhibitors. Both intra-tumor and pathologic plasma human VEGF levels were measured using an ELISA that recognizes human VEGF121 and VEGF165. Intra-tumor VEGF levels were normalized to the total tumor protein concentration and pathologic plasma VEGF levels were expressed in pg/mL. Because smaller tumors produce less VEGF per mg of tumor protein, intra-tumor VEGF levels were normalized to tumor size.
# Experimental Design. HT1080 cells (5×10^6 cells/mouse) were implanted subcutaneously in male athymic nude mice. […] For comparison, Compound #10 was included in this study.
# (§4) Experimental Design. HT1080 cells (5×10^6 cells/mouse) were implanted subcutaneously in male athymic nude mice.
# Tumor size was measured by calipers immediately pre-treatment and at the time of sacrifice on Day 1, 2, or 3 (5 mice per group per day). At sacrifice, the plasma was collected for assay of pathologic human VEGF concentration using an ELISA that recognizes human VEGF121 and VEGF165 (as described in Section 9.1.1.1).
# D245MG-PR cells = assay: D245MG-PR (procarbazine-resistant) lethality model of GBM, monotherapy and with temozolomide; format: in vivo, Balb/C nu/nu mice; details: Cpd #10 10 mg/kg oral QD from Day 3; TMZ 250 mg/kg IP from Day 5 (control 70 days)
# Procedure: Forty (40) female Balb/C nu/nu mice at least 6 weeks of age but not more than 12 weeks at study initiation, weighing at study initiation 18-28 g, were implanted intracranially. D245MG-PR cells (procarbazine-resistant cells derived from an adult human GBM tumor) in a medium using a 25-gauge needle. Mice were anesthetized with Ketamine/Rompun cocktail prior to IC implantation. The day of tumor cell implantation was designated as Day 0. Animals were randomly assigned to treatment groups (10 mice per treatment group).
# Mice in Group 1 were administered L21 vehicle alone orally once per day beginning on Day 3. […] Mice in Group 3 were administered 250 mg/kg TMZ intraperitoneally (IP) beginning on Day 5.
# Body weights were measured the day that dosing was initiated and once a week thereafter. Observations were made on animals that died or were sacrificed at an unscheduled interval. Animals were sacrificed if moribund.
# [10] = tested on: human VEGF121 and VEGF165; assay: Intratumoral and plasma human VEGF (ELISA) in nude mice bearing HT1080 xenografts; format: in vivo, athymic nude mice; details: Day 1; Compound #10 10 mg/kg oral QD, doxorubicin 6 mg/kg IP, bevacizumab 5 mg/kg IP single bolus
# Procedure: as §2
# as §3, with “Intratumoral VEGF levels were normalized to the total tumor protein concentration, while pathologic plasma human VEGF levels were expressed in pg/mL of plasma.” left out
# Experimental Design. […] Both intra-tumor and pathologic plasma human VEGF levels were measured using an ELISA that recognizes human VEGF121 and VEGF165. […]
# Tumor size was measured by calipers immediately pre-treatment and at the time of sacrifice on Day 1, 2, or 3 (5 mice per group per day). […]
# HT1080 xenografts [11] = assay: BrdU labeling of tumor cells from HT1080 xenografts in nude mice; format: in vivo, athymic nude mice; details: Days 1-3; Compound #10 10 mg/kg oral QD, doxorubicin, bevacizumab
# Procedure: as §4
# The mice were sacrificed 3 hours later, and the tumors collected. A single cell suspension was prepared from the tumor cells. The cells were permeabilized and an antibody to BrdU was used to stain cells that had entered S phase during the labeling period. The proportion of cells actively synthesizing DNA was determined by cell sorting.
# [12] = tested on: soluble VEGF121 and VEGF165; assay: Inhibition of soluble VEGF production in human tumor cell lines, ELISA EC50 (Table 4); format: cell-based; details: tumor cells, data not shown
# Procedure: Study Design. […] In these experiments, cultures were established under normoxic conditions (21% oxygen). […] Cells requiring induction of VEGF production were incubated under hypoxic conditions (1% oxygen). At the completion of treatment, the conditioned media were collected and assayed by ELISA (as described in Section 9.1.1.1) for soluble VEGF121 and VEGF165 isoforms; results were calculated as percentage inhibition relative to vehicle treated controls. EC50 values were calculated from the dose concentration response curves.
# HT1080 cells = assay: Cell cycle analysis in HT1080 cells, propidium iodide flow cytometry (Table 24; reversibility); format: cell-based, human; details: tumor cells, data not shown
# Procedure: Experimental Design. […] After treatment, cells were trypsinized, and stained with propidium iodide (PI) dye to measure DNA content of individual cells by flow cytometry. Output comprised histograms showing relative DNA content in 10,000 cells.
# While compounds which cause greater than 20% of the cells to accumulate in S-phase at 100 nM are considered active, a larger percentage of cells may be accumulated in S-phase at lower doses depending on the Compound, as shown in FIG. 12 for example.
# [13] = both sexes, 0.3 mg/kg, Stage 1, 0.3 mg/kg BID, Day 1, mean
# [14] = both sexes, 0.3 mg/kg, Stage 1, 0.3 mg/kg BID, Day 7, mean
# [15] = both sexes, 0.6 mg/kg, Stage 1, 0.6 mg/kg BID, Day 1, mean
compound,measurement,setting,value
COc1ccc([C@H]2c3[nH]c4ccc(Cl)cc4c3CCN2C(=O)Oc2ccc(Cl)cc2)cc1 (racemic) [Compound #10],concentration at 16 h,"[1]; 16 hours after the first day of dosing (n=3), read-out: Mean trough plasma concentration",0.13 µg/mL
same,concentration at 16 h,"[1]; 16 hours after the first day of dosing (n=3), read-out: Mean trough plasma concentration (value in brackets)",0.28 µg/mL
same,concentration at 16 h,"[1]; 16 hours after the last dose on Day 18 (n=4), read-out: Steady state mean trough plasma concentration",0.82 µg/mL
same,concentration at 24 h,[2],0.1 to 0.15 µg/mL
same,NOAEL at 1 day,[3],100 mg/kg
same,NOAEL at 7 days,[4]; female rats,120 mg/kg/day
same,NOAEL at 7 days,[4]; male rats,40 mg/kg/day
same,concentration at 24 h,"[5]; both sexes, 0.3 mg/kg BID, Stage 1, 0.3 mg/kg BID, Day 1, mean",0.094 µg/mL
same,concentration at 24 h,"[5]; both sexes, 0.3 mg/kg BID, Stage 1, 0.3 mg/kg BID, Day 7, mean",0.21 µg/mL
same,AUC(0-t),[5]; [13],4.31 µg·h/mL
same,Cmax,[5]; [13],0.48 µg/mL
same,Tmax,"[5]; both sexes, 0.3 mg/kg, Stage 1, 0.3 mg/kg BID, Day 1, mean, read-out: Tmax (after PM dose)",3.16 h
same,AUC(0-t),[5]; [14],8.44 µg·h/mL
same,Cmax,[5]; [14],0.59 µg/mL
same,concentration at 24 h,"[5]; both sexes, 0.6 mg/kg BID, Stage 1, 0.6 mg/kg BID, Day 1, mean",0.26 µg/mL
same,concentration at 24 h,"[5]; both sexes, 0.6 mg/kg BID, Stage 1, 0.6 mg/kg BID, Day 7, mean",0.54 µg/mL
same,AUC(0-t),[5]; [15],10.1 µg·h/mL
same,Cmax,[5]; [15],0.97 µg/mL
same,Tmax,"[5]; both sexes, 0.6 mg/kg, Stage 1, 0.6 mg/kg BID, Day 1, mean, read-out: Tmax (after PM dose)",3.17 h
same,Cmax,"[5]; both sexes, 0.6 mg/kg, Stage 1, 0.6 mg/kg BID, Day 7, mean",1.16 µg/mL
same,Tmax,"[5]; both sexes, Stage 1 and Stage 2, read-out: Mean Tmax",~3 h
same,AUC(0-t),"[5]; both sexes, Stage 1, 0.6 mg/kg BID, Day 7, mean",18.6 µg·h/mL
same,Tmax,"[5]; both, […], Stage 2, […] TID, Day 1, mean, read-out: Tmax (after PM dose)",2.5 h
same,Tmax,"[5]; both, Stage 1, 1.2 mg/kg BID, Day 1, mean, read-out: Tmax (after PM dose)",3 h
same,NOAEL at 7 days,in vivo [6],60 mg/kg/day
same,NOAEL at 28 days,in vivo [7],30 mg/kg/day
same,NOAEL at 28 days,in vivo [8],12 mg/kg/day
O=C(Oc1ccc(Cl)cc1)N1CCc2c([nH]c3ccc(Cl)cc23)[C@@H]1c1ccc(OCC[C@H](O)CO)cc1 [Compound 1205],Mean difference in tumor growth rate at the Day that the vehicle-treated tumors taken off study (%),"HT1080 xenografts [9]; Study 21, 3 mg/kg QD, Day 14",80%**
same,Mean difference in tumor growth rate at the Day that the vehicle-treated tumors taken off study (%),"HT1080 xenografts [9]; Study 22, 0.5 mg/kg QD, Day 11",62%**
same,Mean difference in tumor growth rate at the Day that the vehicle-treated tumors taken off study (%),"HT1080 xenografts [9]; Study 22, 3 mg/kg QD, Day 11",75%**
same,Mean difference in tumor growth rate at the Day that the vehicle-treated tumors taken off study (%),"HT1080 xenografts [9]; Study 23, 1 mg/kg QD, Day 14",59%**
same,Mean difference in tumor growth rate at the Day that the vehicle-treated tumors taken off study (%),"HT1080 xenografts [9]; Study 24a, 10 mg/kg QD, Day 11",76%**
same,Mean difference in tumor growth rate at the Day that the vehicle-treated tumors taken off study (%),"HT1080 xenografts [9]; Study 24b, 0.3 mg/kg QD, Day 15",28% ^
"Cn1nnc2c(C(N)=O)ncn2c1=O [TEMODAR, temozolomide]",Median survival time,D245MG-PR cells,86 days
COc1cccc2c1C(=O)c1c(O)c3c(c(O)c1C2=O)C[C@@](O)(C(=O)CO)C[C@@H]3O[C@H]1C[C@H](N)[C@H](O)[C@H](C)O1 [doxorubicin],Pathologic plasma human VEGF levels vs control,[10],numerically lower than in control animals by Day 1
same,BrdU staining of tumor cells (fraction in S phase),HT1080 xenografts [11],decreased the percentage of tumor cells staining with BrdU
NC(Cn1ccc(=O)c(O)c1)C(=O)O (centres unmarked) [mimosine],VEGF production,[12],does not delay or prolong the cell cycle or reduce VEGF production
same,Cell cycle delay or prolongation,HT1080 cells,does not delay or prolong the cell cycle or reduce VEGF production
